From ChEMBL document CHEMBL1128083, “The anti-rheumatic potential of a series of 2,4-di-substituted-4H-naphtho[1,2-b]pyran-3-carbonitriles” (Bioorg Med Chem Lett, 1995)
Each block holds one molecule with its values, some of them ahead of it.

Experiments:
Oryctolagus cuniculus [1] = species on record: Oryctolagus cuniculus; experiment: Tested for percent inhibition of Neutral metalloprotease in rabbit chondrocytes at 0.1 uM concentration; type: cell-based
Rattus norvegicus [2] = species on record: Rattus norvegicus; experiment: Percent inhibition of Concanavalin A stimulated cell proliferation of rat spleen lymphocytes at 0.001 uM; type: functional
Rattus norvegicus [3] = species on record: Rattus norvegicus; experiment: Percent inhibition of Concanavalin A stimulated cell proliferation of rat spleen lymphocytes at 10 uM; type: functional
Oryctolagus cuniculus [4] = species on record: Oryctolagus cuniculus; experiment: Tested for percent inhibition of Neutral metalloprotease in rabbit chondrocytes at 1 uM concentration; type: cell-based
Oryctolagus cuniculus [5] = species on record: Oryctolagus cuniculus; experiment: Tested for percent inhibition of Neutral metalloprotease in rabbit chondrocytes at 10 uM concentration; type: cell-based
Rattus norvegicus [6] = species on record: Rattus norvegicus; experiment: Percent inhibition of Concanavalin A stimulated cell proliferation of rat spleen lymphocytes at 0.01 uM; type: functional
Rattus norvegicus [7] = species on record: Rattus norvegicus; experiment: Percent inhibition of Concanavalin A stimulated cell proliferation of rat spleen lymphocytes at 0.1 uM; type: functional
Rattus norvegicus [8] = species on record: Rattus norvegicus; experiment: Percent inhibition of Concanavalin A stimulated cell proliferation of rat spleen lymphocytes at 1 uM; type: functional
[9] = Half life was evaluated; type: ADME
Oryctolagus cuniculus [10] = species on record: Oryctolagus cuniculus; experiment: Tested for percent inhibition of Neutral metalloprotease in rabbit chondrocytes at 10 uM concentration; toxic; type: cell-based
Rattus norvegicus [11] = species on record: Rattus norvegicus; experiment: Percent reduction in arthritis score was measured in CP-20961 injected rats on day 16; type: functional; design: scale not given: the % may be the effect or the level left
[12] = Time at which the maximum concentration is achieved; type: ADME
[13] = Maximum concentration in plasma at Tmax; type: ADME, organism-based
Rattus norvegicus [14] = species on record: Rattus norvegicus; experiment: Percent reduction in arthritis score was measured in CP-20961 injected rats; NR is no reduction; type: functional, organism-based

SMILES: N#Cc1c(N)nc2c(c1-c1cccc([N+](=O)[O-])c1)CCc1ccccc1-2
inhibition (Oryctolagus cuniculus [1]): 8%
inhibition at 0.001 µM (Rattus norvegicus [2]): 13%
inhibition at 10 µM (Rattus norvegicus [3]): 46%
inhibition (Oryctolagus cuniculus [4]): 36%
inhibition (Oryctolagus cuniculus [5]): 42%
inhibition at 0.01 µM (Rattus norvegicus [6]): 15%
inhibition at 0.1 µM (Rattus norvegicus [7]): 23%
inhibition at 1 µM (Rattus norvegicus [8]): 23%

SMILES: N#Cc1c(O)nc2c(c1-c1cccc([N+](=O)[O-])c1)CCc1ccccc1-2
inhibition (Oryctolagus cuniculus [1]): 36%
inhibition (Oryctolagus cuniculus [4]): 3%
inhibition (Oryctolagus cuniculus [5]): 36%

SMILES: N#CC1=C(N)Oc2c(ccc3ccccc23)C1c1cccnc1 (stereo not drawn)
inhibition (Oryctolagus cuniculus [1]): 75%
inhibition at 0.001 µM (Rattus norvegicus [2]): 0%
inhibition (Oryctolagus cuniculus [4]): 83%
inhibition (Oryctolagus cuniculus [5]): 100%
inhibition at 0.01 µM (Rattus norvegicus [6]): 11%
inhibition at 0.1 µM (Rattus norvegicus [7]): 89%
inhibition at 1 µM (Rattus norvegicus [8]): 95%

half-life [9]: ~1 h
SMILES: N#CC1=C(N)Oc2c(ccc3ccccc23)C1c1cccc([N+](=O)[O-])c1 (stereo not drawn)
inhibition (Oryctolagus cuniculus [1]): 74%
inhibition at 0.001 µM (Rattus norvegicus [2]): 33%
inhibition at 10 µM (Rattus norvegicus [3]): 99%
inhibition (Oryctolagus cuniculus [4]): 76%
inhibition (Oryctolagus cuniculus [5]): 102%
inhibition at 0.01 µM (Rattus norvegicus [6]): 73%
inhibition at 0.1 µM (Rattus norvegicus [7]): 89%
inhibition at 1 µM (Rattus norvegicus [8]): 95%

SMILES: N#CC1=C(N)Oc2c(ccc3ccccc23)C1c1ccc(F)c(Cl)c1 (stereo not drawn)
inhibition (Oryctolagus cuniculus [1]): 37%
inhibition at 10 µM (Rattus norvegicus [3]): 98%
inhibition (Oryctolagus cuniculus [4]): 111%
inhibition at 0.01 µM (Rattus norvegicus [6]): 38%
inhibition (Oryctolagus cuniculus [10]): 81%
inhibition at 0.1 µM (Rattus norvegicus [7]): 83%
inhibition at 1 µM (Rattus norvegicus [8]): 86%

Tmax [12]: 6 h
Cmax [13]: 5 ng/mL
SMILES: N#CC1=C(N2C(=O)CCC2=O)Oc2c(ccc3ccccc23)C1c1cccc([N+](=O)[O-])c1 (stereo not drawn)
inhibition (Oryctolagus cuniculus [1]): 17%
inhibition at 0.001 µM (Rattus norvegicus [2]): 9%
inhibition at 10 µM (Rattus norvegicus [3]): 97%
inhibition (Oryctolagus cuniculus [4]): 69%
Activity (Rattus norvegicus [11]): 48%
inhibition (Oryctolagus cuniculus [5]): 86%
inhibition at 0.01 µM (Rattus norvegicus [6]): 1%
inhibition at 0.1 µM (Rattus norvegicus [7]): -4%
inhibition at 1 µM (Rattus norvegicus [8]): 87%

Tmax [12]: 4 h
Cmax [13]: 178 ng/mL
SMILES: N#CC1=C(N2C(=O)CCC2=O)Oc2c(ccc3ccccc23)C1c1ccc(F)c(Cl)c1 (stereo not drawn)
Activity (Rattus norvegicus [14]): No reduction
inhibition (Oryctolagus cuniculus [1]): 26%
inhibition at 0.001 µM (Rattus norvegicus [2]): 18%
inhibition at 10 µM (Rattus norvegicus [3]): 98%
inhibition (Oryctolagus cuniculus [4]): 53%
inhibition (Oryctolagus cuniculus [5]): 111%
inhibition at 0.01 µM (Rattus norvegicus [6]): -16%
inhibition at 0.1 µM (Rattus norvegicus [7]): 10%
inhibition at 1 µM (Rattus norvegicus [8]): 92%

SMILES: N#CC1=C(n2cccc2)Oc2c(ccc3ccccc23)C1c1cccc([N+](=O)[O-])c1 (stereo not drawn)
inhibition (Oryctolagus cuniculus [1]): 1%
inhibition at 10 µM (Rattus norvegicus [3]): 87%
inhibition (Oryctolagus cuniculus [4]): -5%
inhibition (Oryctolagus cuniculus [5]): 4%
inhibition at 0.1 µM (Rattus norvegicus [7]): -7%
inhibition at 1 µM (Rattus norvegicus [8]): 82%

SMILES: O=C1CC(c2cccc([N+](=O)[O-])c2)c2ccc3ccccc3c2O1 (stereo not drawn)
inhibition at 0.001 µM (Rattus norvegicus [2]): 19%
inhibition at 10 µM (Rattus norvegicus [3]): 15%
inhibition at 0.01 µM (Rattus norvegicus [6]): 6%
inhibition at 0.1 µM (Rattus norvegicus [7]): 9%
inhibition at 1 µM (Rattus norvegicus [8]): 2%

SMILES: N#CC1=C(N)OC2=C(CCc3ccccc32)C1c1cccc([N+](=O)[O-])c1 (stereo not drawn)
inhibition (Oryctolagus cuniculus [1]): 39%
inhibition at 0.001 µM (Rattus norvegicus [2]): 29%
inhibition at 10 µM (Rattus norvegicus [3]): 99%
inhibition (Oryctolagus cuniculus [4]): 76%
inhibition (Oryctolagus cuniculus [5]): 104%
inhibition at 0.01 µM (Rattus norvegicus [6]): 58%
inhibition at 0.1 µM (Rattus norvegicus [7]): 87%
inhibition at 1 µM (Rattus norvegicus [8]): 95%

Tmax [12]: 0.5 h
Cmax [13]: 55 ng/mL
SMILES: N#CC1=C(N2C(=O)CCC2=O)Oc2c(ccc3ccccc23)C1c1cccnc1 (stereo not drawn)
inhibition at 0.001 µM (Rattus norvegicus [2]): 7%
inhibition at 10 µM (Rattus norvegicus [3]): 87%
inhibition (Oryctolagus cuniculus [4]): 17%
Activity (Rattus norvegicus [11]): 41%
inhibition (Oryctolagus cuniculus [5]): 25%
inhibition at 0.01 µM (Rattus norvegicus [6]): -6%
inhibition at 0.1 µM (Rattus norvegicus [7]): -5%
inhibition at 1 µM (Rattus norvegicus [8]): 85%

SMILES: N#CC1C(=O)NC2=C(CCc3ccccc32)C1c1cccc([N+](=O)[O-])c1 (stereo not drawn)
inhibition (Oryctolagus cuniculus [1]): -7%
inhibition at 0.001 µM (Rattus norvegicus [2]): 9%
inhibition at 10 µM (Rattus norvegicus [3]): 22%
inhibition (Oryctolagus cuniculus [4]): 36%
inhibition (Oryctolagus cuniculus [5]): 20%
inhibition at 0.01 µM (Rattus norvegicus [6]): 8%
inhibition at 0.1 µM (Rattus norvegicus [7]): 6%
inhibition at 1 µM (Rattus norvegicus [8]): 15%
